Test results taken from paper PMC5874719, “A π-Halogen Bond of Dibenzofuranones with the Gatekeeper Phe113 in Human Protein Kinase CK2 Leads to Potent Tight Binding Inhibitors” (Pharmaceuticals, 2018).

Experiments:
Assay type in all cases: cell-based, human
PARP1 in LNCaP cells = experiment: PARP1 cleavage, Western blot
Experimental: Figure 6 Induction of apoptosis in prostate cancer cell line LNCaP and non-neoplastic retinal pigment epithelial cell line ARPE19. (A) ARPE19 or LNCaP cells were treated with DMSO as control (0 μM) or with 25 or 50 μM 4b, 4a or 5 for 24 or 48 h. Activity of caspases 3 and 7 was determined using the luminescent Caspase-Glo® 3/7 assay according to the technical bulletin of the manufacturer. Median relative light units (RLU) + standard deviation from at least three independent experiments are shown in the bar graph. (B) Cells were treated as described before. 75 μg cell extract was separated in a 10% SDS polyacrylamide gel and analyzed in a Western blot analysis with a rabbit polyclonal antibody against PARP1. + is a positive control for PARP cleavage.
In addition to the luminescence assay, Western blot analysis was performed to check PARP1-cleavage (Figure 6B). Therefore specific antibodies for the detection of the full-length PARP1 (113 kDa) and the larger cleavage fragment of PARP1 (89 kDa) were used. In ARPE19 cells no cleavage product of PARP1 was detectable.
Proteins were separated by SDS polyacrylamide gel electrophoresis and blotted onto a PVDF membrane. After blocking (1 h with PBS-Tween20 with 5% dry milk) the membrane was incubated with appropriate dilutions of primary antibodies in PBS-Tween20 with 1% dry milk for another hour at room temperature or at 4 °C overnight. Then the membrane was washed twice for 10 min with PBS-Tween20 with 1% dry milk. Incubation with the peroxidase-coupled secondary antibody (anti-rabbit 1:30,000, anti-mouse 1:10,000) followed for 1 h. The membrane was washed again twice for 10 min with PBS-Tween20. Signals were developed and visualized by the Lumilight system of Roche Diagnostics GmbH. For the detection of the apoptose marker protein PARP we used a polyclonal PARP antibody (Cell Signaling Technology, Frankfurt, Germany), a GAPDH specific antibody (Santa Cruz Biotechnologies, Dallas, TX, USA) was used for loading control. […]

[1] = system: cellular CK2 in ARPE19 cells; experiment: cellular CK2 activity after treatment of cells (in vitro phosphorylation assay of cell extracts); conditions: for cellular CK2 activity reduced to: control = 100%
Experimental: (§1) Figure 4 Expression of CK2 in prostate cancer cell line LNCaP and non-neoplastic retinal pigment epithelial cell line ARPE19 and inhibition of intracellular activity by dibenzofurans. (A) Cells were extracted with RIPA buffer. 50 μg cell extract was separated on a 12.5% SDS polyacrylamide gel and transferred to a PVDF membrane followed by Western blotting with anti-CK2α (1A5), anti-CK2α’ (#30), anti-CK2α (6D5) and anti-GAPDH antibodies. GAPDH was used as a loading control. (B) ARPE19 or LNCaP cells were treated with DMSO as control (0 μM) or with 25 or 50 μM 4b, 4a or 5 for 24 or 48 h. Kinase activity of CK2 in the cell extracts was measured with the synthetic CK2 specific peptide substrate, […], in the presence of [[^32P]γATP. Results from at least three individual experiments are shown; the activity in the control cells was set to 100%.
(§2) ARPE19 and LNCaP cells were treated with 0, 25 or 50 µM of the different dibenzofuran derivatives 4b, 4a and 5 for 24 and 48 h before being harvested. Proteins were extracted and CK2 kinase activity was measured by an in vitro phosphorylation assay using the CK2 specific peptide substrate […] and radiolabeled [[^32P]γATP. The activity as measured was normalized to equal protein amounts. The relative CK2 activity of at least three independent experiments is given as bar graphs in Figure 4B. In ARPE19 cells CK2 activity was strongly repressed by all inhibitors. […] For 5 a weaker but dose-dependant effect was observed. 25 µM reduced the cellular CK2 activity to 80% and with 50 µM the activity was reduced to 40%. In LNCaP cells the results were essentially similar to those made in ARPE19 cells. However, the repression of activity by 4b and 4a was not as strong as in ARPE19 cells. 4b reduced the activity to 50%, 4a to 40%. The outcome using 5 was quite similar to the effects observed in ARPE19 cells: a reduction to roughly 80% when using 25 µM, which was enhanced to 40% when using 50 µM. This also indicated cell penetration of compounds 4a, 4b, and 5. A more direct evidence for intracellular inhibition of CK2 could be obtained by measuring the phosphorylation of endogenous natural substrates (biomarker analysis). […] With respect to their results and taking into consideration that the logP values of compounds 4a, 4b, and 5 as given in Table 2 are not of substantial difference, we conclude that the inhibitors were able to cross the cell membrane and exerted a similar inhibitory effect on intracellular CK2 activity in both cell lines.
(§3) ARPE19 cells (ATCC Number: CRL-2302), retinal pigment epithelia (RPE) cells, were maintained at 37 °C and 5% CO2 in Dulbecco’s modified Eagles medium (DMEM) supplemented with 2 mM L-glutamine, 1 mM gentamicin and 10% fetal calf serum (FCS) at 37 °C in an atmosphere enriched with 5% CO2. The hormone-sensitive prostate cancer cell line LNCaP (ATCC: CRL-1740, passage number 30–40) was cultured in RPMI1640 (Sigma-Aldrich Chemie GmbH, Munich, Germany) supplemented with 10% fetal bovine serum and 2 mM L-glutamine at 37 °C in an atmosphere enriched with 5% CO2. 4b, 4a and 5 were dissolved in DMSO as a 10 mM stock solution and cells were treated in the concentrations and times as indicated. Pure DMSO was applied as control. For the evaluation of cell morphology ARPE19 and LNCaP cells were analysed with bright field microscopy using a Axiovert microscope from Zeiss (Jena, Germany).
(§4) For harvesting cells—including floating cells—were scraped off the plate with a rubber policeman and sedimented by centrifugation (7 min, 4 °C, 400× g). Cells were washed with cold phosphate buffered saline (PBS) and the cell pellet was lysed with the double volume of RIPA buffer (50 mM Tris/HCl, pH 8.0, 150 mM NaCl, 0.5% sodium desoxycholate, 1% Triton X-100, 0.1% sodium dodecylsulfate) supplemented with the protease inhibitor cocktail completeTM (Roche Diagnostics GmbH, Mannheim, Germany). […]

[2] = system: cellular CK2 in LNCaP cells; experiment: as above; conditions: control = 100%
Experimental: as §1, §2, §3, §4

[3] = 25 or 50 µM, 24 or 48 h (not specified)

SMILES	PARP1 cleavage (PARP1 in LNCaP cells; 25 or 50 µM, 24 or 48 h)	inhibition of cellular CK2 activity ([1]; ARPE19, 25 µM for 24 h)	cellular CK2 activity reduced to [2, 3]	PARP1 cleavage (PARP1 in LNCaP cells; 50 µM)	cellular CK2 activity reduced to ([1]; ARPE19, 25 µM)	cellular CK2 activity reduced to ([1]; ARPE19, 50 µM)	cellular CK2 activity reduced to ([2]; 25 µM)	cellular CK2 activity reduced to ([2]; 50 µM)	inhibition of cellular CK2 activity ([1]; ARPE19, 25 or 50 µM, 24 or 48 h, independent of concentration and time)
COc1ccc(N/C=C2\C(=O)CCc3c2oc2cc(Cl)c(O)c(Cl)c32)cc1 [4a, 7,9-dichloro-1,2-dihydro-8-hydroxy-4-[(4-methoxyphenylamino)methylene]dibenzo[b,d]furan-3(2H)-one]	did not result in cleavage of PARP1	80%	40%	–	–	–	–	–	–
COc1ccc(/N=C/c2c(O)ccc3c2oc2cc(Cl)c(O)c(Cl)c23)cc1 [compound 5, (E)-1,3-dichloro-6-[(4-methoxyphenylimino)methyl]dibenzo[b,d]furan-2,7-diol]	–	–	–	cleavage of PARP1	80%	40%	roughly 80%	40%	–
Cc1ccc(NC=C2C(=O)CCc3c2oc2c(Cl)c(Cl)c(O)cc32)cc1 [4b, 6,7-dichloro-1,4-dihydro-8-hydroxy-4-[(4-methylphenylamino)methylene]dibenzo[b,d]furan-3(2H)-one]	–	–	50%	cleavage of PARP1	–	–	–	–	60%
